Laboratory results as given in patent US20240124442A1, “TRICYCLIC-AMIDO-BICYCLIC PRMT5 INHIBITORS” (AMGEN INC., priority 2021, published 2024).

Key:
[1] = system: HCT116 MTAP null cells; experiment: HCT116 MTAP null cell line proliferation / cell viability (CellTiter-Glo, 6 days); format: cell-based; details: 144 h; HCT116 MTAP null cells, 6 days treatment, CellTiter-Glo cell viability; read-out: HCT-116 MTAP null IC50
Description: (§1) HCT116 Proliferation Activity
(§2) To assess selective anti-proliferative activity of compounds of the invention in cells that have loss expression of MTAP, an HCT-116 isogenic cell line pair was utilized where one cell line was engineered to genetically knockout both MTAP alleles. Cell viability was then assessed in both the parent HCT-116 cell line and the MTAP null cell line after 6 days of treatment with compounds of the present invention. Selective anti-proliferative activity in the MTAP null cell line indicates MTA-cooperative inhibition of PRMT5 and ability to inhibit growth of cancer cells that have loss of MTAP.
(§3) HCT116 MTAP null and WT cells were seeded in 96-well tissue culture plates in RPMI 1640 media+10% fetal bovine serum. Plates were incubated overnight at 37° C. and 5% CO2. Cells were then treated with an 8- or 9-point serial dilution of compound, using a top concentration of 1, or 10 μM, 1:3 serial dilution steps and, a DMSO-only control. Cells were incubated in the presence of drug for 6 days. Effects on cell viability were measured with the CellTiter-Glo® Luminescent Cell Viability Assay (Promega) per manufacturer's recommendation. Assay plates were read on an EnVision™ Multilabel Reader using the Ultra-Sensitive luminescence module. IC50 values were calculated with GraphPad Prism v 5.01 using symmetrical sigmoidal dose-response least squares fit with Hill slope fixed to −1 and top constrain to 100% or GeneData Screener using a 4-parameter logistic model to fit dose response curves.
(§4) Alternatively, compounds could be assayed with a 384 well plate format:
(§5) Compounds were pre-spotted into 384 well plates with a 22-point serial dilution of compound, using a top concentration of 10 or 50 μM, 1:2 serial dilution steps and, a DMSO-only control. HCT116 MTAP null and WT cells were then seeded as above and after 6 days effects on cell viability were measured with the CellTiter-Glo® Luminescent Cell Viability Assay (Promega). Assay plates were read as above and IC50 values were calculated with GeneData Screener using a 4-parameter logistic model to fit dose response curves. The reported IC50 represents the value where the curve transits 50% of control.

[2] = system: HCT116 WT cells; experiment: HCT116 WT (parent) cell line proliferation / cell viability (CellTiter-Glo, 6 days); format: cell-based; details: Homo sapiens, HCT-116, 144 h, 6 days treatment
Description: as §1, §2, §3, §4, §5

| Compound | IC50 [1] | IC50 [2] |
| --- | --- | --- |
| CN(C(=O)c1cc2c(cc1F)nc(N)c1cnn(C)c12)C1COc2cc(C(F)(F)F)cc(F)c21 (racemic) [Example 245, 4-amino-7-fluoro-N-((3R)-4-fluoro-6-(trifluoromethyl)-2,3-dihydro-1-benzofuran-3-yl)-N,1-dimethyl-1H-pyrazolo-[4,3-c]quinoline-8-carboxamide and 4-amino-7-fluoro-N-((3S)-4-fluoro-6-(trifluoromethyl)-2,3-dihydro-1-benzofuran-3-yl)-N,1-dimethyl-1H-pyrazolo[4,3-c]quinoline-8-carboxamide] | 0.019 µM | 0.88 µM |
| CN(C(=O)c1cc2c(cc1F)nc(N)c1cnn(C)c12)C1c2ccc(C(F)(F)F)nc2CC1(F)F (racemic) [Example 246, 4-amino-N-((5R)-6,6-difluoro-2-(trifluoromethyl)-6,7-dihydro-5H-cyclopenta[b]-pyridin-5-yl)-7-fluoro-N,1-dimethyl-1H-pyrazolo[4,3-c]-quinoline-8-carboxamide and 4-amino-N-((5S)-6,6-difluoro-2-(trifluoromethyl)-6,7-dihydro-5H-cyclopenta[b]pyridin-5-yl)-7-fluoro-N,1-dimethyl-1H-pyrazolo[4,3-c]quinoline-8-carboxamide] | 0.61 µM | 8.48 µM |
| CN(C(=O)c1cc2c(cc1Cl)nc(N)c1cnn(C)c12)C1CCc2nc(C(F)(F)F)ccc21 (racemic) [Example 248, 4-amino-7-chloro-N,1-dimethyl-N-((5R)-2-(trifluoromethyl)-6,7-dihydro-5H-cyclopenta[b]-pyridin-5-yl)-1H-pyrazolo[4,3-c]quinoline-8-carboxamide and 4-amino-7-chloro-N,1-dimethyl-N-((5S)-2-(trifluoromethyl)-6,7-dihydro-5H-cyclopenta[b]-pyridin-5-yl)-1H-pyrazolo[4,3-c]quinoline-8-carboxamide] | 0.018 µM | 0.635 µM |
| CN(C(=O)c1cc2c3c(c(N)nc2cc1F)COC3)C1CCOc2cc(C(F)(F)F)ccc21 (racemic) [Example 272, 4-amino-7-fluoro-N-methyl-N-((4R)-7-(trifluoromethyl)-3,4-dihydro-2H-chromen-4-yl)-1,3-dihydrofuro[3,4-c]quinoline-8-carboxamide and 4-amino-7-fluoro-N-methyl-N-((4S)-7-(trifluoromethyl)-3,4-dihydro-2H-chromen-4-yl)-1,3-dihydrofuro[3,4-c]quinoline-8-carboxamide] | 0.206 µM | 5.39 µM |
| CN(C(=O)c1cc2c(cc1F)nc(N)c1cnn(C)c12)C1CCOc2cc(C(F)(F)F)ccc21 (racemic) [Example 290, 4-amino-7-fluoro-N,1-dimethyl-N-((4R)-7-(trifluoromethyl)-3,4-dihydro-2H-chromen-4-yl)-1H-pyrazolo[4,3-c]quinoline-8-carboxamide and 4-amino-7-fluoro-N,1-dimethyl-N-((4S)-7-(trifluoromethyl)-3,4-dihydro-2H-chromen-4-yl)-1H-pyrazolo[4,3-c]quinoline-8-carboxamide] | 0.061 µM | 2.46 µM |
| CN(C(=O)c1ccc2nc(N)c3c(c2c1)COC3)C1CCc2nc(C(F)(F)F)ccc21 (racemic) [Example 444, 4-amino-N-methyl-N-((5R)-2-(trifluoromethyl)-6,7-dihydro-5H-cyclopenta[b]pyridin-5-yl)-1,3-dihydrofuro[3,4-c]quinoline-8-carboxamide and 4-amino-N-methyl-N-((5S)-2-(trifluoromethyl)-6,7-dihydro-5H-cyclopenta[b]pyridin-5-yl)-1,3-dihydrofuro[3,4-c]quinoline-8-carboxamide] | 0.348 µM | 12.1 µM |
| CN(C(=O)c1ccc2nc(N)c3c(c2c1)COC3)C1COc2cc(C(F)(F)F)ncc21 (racemic) [Example 445, 4-amino-N-methyl-N-((3R)-6-(trifluoromethyl)-2,3-dihydrofuro[3,2-c]pyridin-3-yl)-1,3-dihydrofuro[3,4-c]quinoline-8-carboxamide and 4-amino-N-methyl-N-((3S)-6-(trifluoromethyl)-2,3-dihydrofuro[3,2-c]pyridin-3-yl)-1,3-dihydrofuro[3,4-c]quinoline-8-carboxamide] | 0.316 µM | 12.6 µM |

Further lines, results first:

| IC50 [1] | IC50 [2] | Compound |
| --- | --- | --- |
| 0.096 µM | 3.35 µM | Nc1nc2ccc(C(=O)N(C3CC3)C3COc4cc(C(F)(F)F)ccc43)cc2c2c1COC2 (racemic) [Example 449, 4-amino-N-cyclopropyl-N-((3R)-6-(trifluoromethyl)-2,3-dihydro-1-benzofuran-3-yl)-1,3-dihydrofuro[3,4-c]quinoline-8-carboxamide and 4-amino-N-cyclopropyl-N-((3S)-6-(trifluoromethyl)-2,3-dihydro-1-benzofuran-3-yl)-1,3-dihydrofuro[3,4-c]quinoline-8-carboxamide] |
| 2.07 µM | 37.8 µM | CN(C(=O)c1ccc2nc(N)c3c(c2c1)COC3)C1COc2cc(Br)cnc21 (racemic) [Example 450, 4-amino-N-((3R)-6-bromo-2,3-dihydrofuro[3,2-b]pyridin-3-yl)-N-methyl-1,3-dihydrofuro[3,4-c]quinoline-8-carboxamide and 4-amino-N-((3S)-6-bromo-2,3-dihydrofuro[3,2-b]pyridin-3-yl)-N-methyl-1,3-dihydrofuro[3,4-c]quinoline-8-carboxamide] |
| 0.246 µM | 13.3 µM | CN(C(=O)c1cc2c3c(c(N)nc2cn1)COC3)C1COc2cc(OC(F)F)ccc21 (racemic) [Example 453, 4-amino-N-((3R)-6-(difluoromethoxy)-2,3-dihydro-1-benzofuran-3-yl)-N-methyl-1,3-dihydrofuro[3,4-c][1,7]naphthyridine-8-carboxamide and 4-amino-N-((3S)-6-(difluoromethoxy)-2,3-dihydro-1-benzofuran-3-yl)-N-methyl-1,3-dihydrofuro[3,4-c][1,7]naphthyridine-8-carboxamide] |
| 3.56 µM | 50 µM | CN(C(=O)c1cc2c3c(c(N)nc2cn1)COC3)C1COc2cc(C(F)(F)F)ncc21 (racemic) [Example 454, 4-amino-N-methyl-N-((3R)-6-(trifluoromethyl)-2,3-dihydrofuro[3,2-c]pyridin-3-yl)-1,3-dihydrofuro[3,4-c][1,7]naphthyridine-8-carboxamide and 4-amino-N-methyl-N-((3S)-6-(trifluoromethyl)-2,3-dihydrofuro[3,2-c]pyridin-3-yl)-1,3-dihydrofuro[3,4-c][1,7]naphthyridine-8-carboxamide] |
| 0.122 µM | 5.62 µM | CN(C(=O)c1cc2c3c(c(N)nc2cn1)COC3)C1COc2cc(C(F)(F)F)cc(F)c21 (racemic) [Example 455, 4-amino-N-((3R)-4-fluoro-6-(trifluoromethyl)-2,3-dihydro-1-benzofuran-3-yl)-N-methyl-1,3-dihydrofuro[3,4-c][1,7]naphthyridine-8-carboxamide and 4-amino-N-((3S)-4-fluoro-6-(trifluoromethyl)-2,3-dihydro-1-benzofuran-3-yl)-N-methyl-1,3-dihydrofuro[3,4-c][1,7]naphthyridine-8-carboxamide] |
| 5.05 µM | 38.5 µM | CN(C(=O)c1cc2c3c(c(N)nc2cn1)COC3)C1COc2cc(Br)cnc21 (racemic) [Example 458, 4-amino-N-((3R)-6-bromo-2,3-dihydrofuro[3,2-b]pyridin-3-yl)-N-methyl-1,3-dihydrofuro[3,4-c][1,7]naphthyridine-8-carboxamide and 4-amino-N-((3S)-6-bromo-2,3-dihydrofuro[3,2-b]pyridin-3-yl)-N-methyl-1,3-dihydrofuro[3,4-c][1,7]naphthyridine-8-carboxamide] |
| 0.091 µM | 5.54 µM | CN(C(=O)c1cc2c3c(c(N)nc2cc1F)COC3)C1COc2cc(OC(F)F)ccc21 (racemic) [Example 459, 4-amino-N-((3R)-6-(difluoromethoxy)-2,3-dihydro-1-benzofuran-3-yl)-7-fluoro-N-methyl-1,3-dihydrofuro[3,4-c]quinoline-8-carboxamide and 4-amino-N-((3S)-6-(difluoromethoxy)-2,3-dihydro-1-benzofuran-3-yl)-7-fluoro-N-methyl-1,3-dihydrofuro[3,4-c]quinoline-8-carboxamide] |
| 0.162 µM | 10.8 µM | CN(C(=O)c1cc2c3c(c(N)nc2cc1F)COC3)C1COc2cc(C(F)(F)F)ncc21 (racemic) [Example 460, 4-amino-7-fluoro-N-methyl-N-((3R)-6-(trifluoromethyl)-2,3-dihydrofuro[3,2-c]pyridin-3-yl)-1,3-dihydrofuro[3,4-c]quinoline-8-carboxamide and 4-amino-7-fluoro-N-methyl-N-((3S)-6-(trifluoromethyl)-2,3-dihydrofuro[3,2-c]pyridin-3-yl)-1,3-dihydrofuro[3,4-c]quinoline-8-carboxamide] |
